Measured values as given in ChEMBL document CHEMBL2439971, “Design, synthesis and antiproliferative evaluation of fluorenone analogs with DNA topoisomerase I inhibitory properties” (Bioorg Med Chem, 2013).
The source made the active and inactive calls. No cut-off for these calls is given here.

Tests used:
Homo sapiens = organism: Homo sapiens; assay: Inhibition of telomerase (unknown origin) at 10 uM TRAP assay
CAKI-1 = assay: Cytotoxicity against human CAKI-1 cells at 10 uM after 48 hrs by sulforhodamine B assay relative to control; type: functional
MDA-MB-468 = assay: Cytotoxicity against human MDA-MB-468 cells at 10 uM after 48 hrs by sulforhodamine B assay relative to control; type: functional
T47D = assay: Cytotoxicity against human T47D cells at 10 uM after 48 hrs by sulforhodamine B assay relative to control; type: functional
BT-549 = assay: Cytotoxicity against human BT549 cells at 10 uM after 48 hrs by sulforhodamine B assay relative to control; type: functional
[1] = Cytotoxicity against human Hs 578T cells at 10 uM after 48 hrs by sulforhodamine B assay relative to control; type: functional
MDA-MB-231 = assay: Cytotoxicity against human MDA-MB-231 cells at 10 uM after 48 hrs by sulforhodamine B assay relative to control; type: functional
MCF7 = assay: Cytotoxicity against human MCF7 cells at 10 uM after 48 hrs by sulforhodamine B assay relative to control; type: functional
DU-145 = assay: Cytotoxicity against human DU145 cells at 10 uM after 48 hrs by sulforhodamine B assay relative to control; type: functional
PC-3 [2] = assay: Cytotoxicity against human PC3 cells at 10 uM after 48 hrs by sulforhodamine B assay relative to control; type: functional
UO-31 = assay: Cytotoxicity against human UO31 cells at 10 uM after 48 hrs by sulforhodamine B assay relative to control; type: functional
TK-10 = assay: Cytotoxicity against human TK10 cells at 10 uM after 48 hrs by sulforhodamine B assay relative to control; type: functional
SN12C = assay: Cytotoxicity against human SN12C cells at 10 uM after 48 hrs by sulforhodamine B assay relative to control; type: functional
RXF 393 = assay: Cytotoxicity against human RXF393 cells at 10 uM after 48 hrs by sulforhodamine B assay relative to control; type: functional
ACHN = assay: Cytotoxicity against human ACHN cells at 10 uM after 48 hrs by sulforhodamine B assay relative to control; type: functional
786-0 = assay: Cytotoxicity against human 786-0 cells at 10 uM after 48 hrs by sulforhodamine B assay relative to control; type: functional
NCI/ADR-RES = assay: Cytotoxicity against human NCI/ADR-RES cells at 10 uM after 48 hrs by sulforhodamine B assay relative to control; type: functional
OVCAR-8 = assay: Cytotoxicity against human OVCAR8 cells at 10 uM after 48 hrs by sulforhodamine B assay relative to control; type: functional
OVCAR-5 = assay: Cytotoxicity against human OVCAR5 cells at 10 uM after 48 hrs by sulforhodamine B assay relative to control; type: functional
OVCAR-4 = assay: Cytotoxicity against human OVCAR4 cells at 10 uM after 48 hrs by sulforhodamine B assay relative to control; type: functional
OVCAR-3 = assay: Cytotoxicity against human OVCAR3 cells at 10 uM after 48 hrs by sulforhodamine B assay relative to control; type: functional
IGROV-1 = assay: Cytotoxicity against human IGROV1 cells at 10 uM after 48 hrs by sulforhodamine B assay relative to control; type: functional
UACC-62 = assay: Cytotoxicity against human UACC62 cells at 10 uM after 48 hrs by sulforhodamine B assay relative to control; type: functional
UACC-257 = assay: Cytotoxicity against human UACC257 cells at 10 uM after 48 hrs by sulforhodamine B assay relative to control; type: functional
SK-MEL-5 = assay: Cytotoxicity against human SK-MEL-5 cells at 10 uM after 48 hrs by sulforhodamine B assay relative to control; type: functional
SK-MEL-28 = assay: Cytotoxicity against human SK-MEL-28 cells at 10 uM after 48 hrs by sulforhodamine B assay relative to control; type: functional
SK-MEL-2 = assay: Cytotoxicity against human SK-MEL-2 cells at 10 uM after 48 hrs by sulforhodamine B assay relative to control; type: functional
MDA-MB-435 = assay: Cytotoxicity against human MDA-MB-435 cells at 10 uM after 48 hrs by sulforhodamine B assay relative to control; type: functional
M14 = assay: Cytotoxicity against human M14 cells at 10 uM after 48 hrs by sulforhodamine B assay relative to control; type: functional
Malme-3M = assay: Cytotoxicity against human MALME-3M cells at 10 uM after 48 hrs by sulforhodamine B assay relative to control; type: functional
LOX IMVI = assay: Cytotoxicity against human LOXIMVI cells at 10 uM after 48 hrs by sulforhodamine B assay relative to control; type: functional
SNB-75 = assay: Cytotoxicity against human SNB75 cells at 10 uM after 48 hrs by sulforhodamine B assay relative to control; type: functional
U-251 = assay: Cytotoxicity against human U251 cells at 10 uM after 48 hrs by sulforhodamine B assay relative to control; type: functional
SF-539 = assay: Cytotoxicity against human SF539 cells at 10 uM after 48 hrs by sulforhodamine B assay relative to control; type: functional
SNB-19 = assay: Cytotoxicity against human SNB19 cells at 10 uM after 48 hrs by sulforhodamine B assay relative to control; type: functional
SF-295 = assay: Cytotoxicity against human SF295 cells at 10 uM after 48 hrs by sulforhodamine B assay relative to control; type: functional
SF-268 = assay: Cytotoxicity against human SF268 cells at 10 uM after 48 hrs by sulforhodamine B assay relative to control; type: functional
SW-620 = assay: Cytotoxicity against human SW620 cells at 10 uM after 48 hrs by sulforhodamine B assay relative to control; type: functional
KM12 = assay: Cytotoxicity against human KM12 cells at 10 uM after 48 hrs by sulforhodamine B assay relative to control; type: functional
HT-29 = assay: Cytotoxicity against human HT-29 cells at 10 uM after 48 hrs by sulforhodamine B assay relative to control; type: functional
HCT-15 = assay: Cytotoxicity against human HCT15 cells at 10 uM after 48 hrs by sulforhodamine B assay relative to control; type: functional
HCT-116 = assay: Cytotoxicity against human HCT116 cells at 10 uM after 48 hrs by sulforhodamine B assay relative to control; type: functional
HCC 2998 = assay: Cytotoxicity against human HCC2998 cells at 10 uM after 48 hrs by sulforhodamine B assay relative to control; type: functional
COLO 205 = assay: Cytotoxicity against human COLO205 cells at 10 uM after 48 hrs by sulforhodamine B assay relative to control; type: functional
NCI-H522 = assay: Cytotoxicity against human NCI-H522 cells at 10 uM after 48 hrs by sulforhodamine B assay relative to control; type: functional
NCI-H460 = assay: Cytotoxicity against human NCI-H460 cells at 10 uM after 48 hrs by sulforhodamine B assay relative to control; type: functional
NCI-H322M = assay: Cytotoxicity against human NCI-H322M cells at 10 uM after 48 hrs by sulforhodamine B assay relative to control; type: functional
NCI-H23 = assay: Cytotoxicity against human NCI-H23 cells at 10 uM after 48 hrs by sulforhodamine B assay relative to control; type: functional
NCI-H226 = assay: Cytotoxicity against human NCI-H226 cells at 10 uM after 48 hrs by sulforhodamine B assay relative to control; type: functional
HOP-92 = assay: Cytotoxicity against human HOP92 cells at 10 uM after 48 hrs by sulforhodamine B assay relative to control; type: functional
HOP-62 = assay: Cytotoxicity against human HOP62 cells at 10 uM after 48 hrs by sulforhodamine B assay relative to control; type: functional
[3] = Cytotoxicity against human EKVX cells at 10 uM after 48 hrs by sulforhodamine B assay relative to control; type: functional
A549 = assay: Cytotoxicity against human A549 cells at 10 uM after 48 hrs by sulforhodamine B assay relative to control; type: functional
SR = assay: Cytotoxicity against human SR cells at 10 uM after 48 hrs by sulforhodamine B assay relative to control; type: functional
RPMI-8226 = assay: Cytotoxicity against human RPMI8226 cells at 10 uM after 48 hrs by sulforhodamine B assay relative to control; type: functional
MOLT-4 = assay: Cytotoxicity against human MOLT4 cells at 10 uM after 48 hrs by sulforhodamine B assay relative to control; type: functional
K562 = assay: Cytotoxicity against human K562 cells at 10 uM after 48 hrs by sulforhodamine B assay relative to control; type: functional
HL-60(TB) = assay: Cytotoxicity against human HL-60(TB) cells at 10 uM after 48 hrs by sulforhodamine B assay relative to control; type: functional
CCRF-CEM = assay: Cytotoxicity against human CCRF-CEM cells at 10 uM after 48 hrs by sulforhodamine B assay relative to control; type: functional
PC-3 [4] = assay: Cytotoxicity against human PC3 cells after 48 hrs by sulforhodamine B assay; type: functional, cell-based; conditions: PC-3, 48 h

CN1CCN(CC(=O)Nc2ccc3c(c2)C(=O)c2cc(NC(=O)CN4CCN(C)CC4)ccc2-3)CC1
inhibition (Homo sapiens): inactive | Activity (CAKI-1): 92.75% | Activity (MDA-MB-468): 98.39% | Activity (T47D): 103.63% | Activity (BT-549): 110.6% | Activity [1]: 107.34% | Activity (MDA-MB-231): 108.13% | Activity (MCF7): 95.17% | Activity (DU-145): 117.23% | Activity (PC-3 [2]): 101.32% | Activity (UO-31): 89.84% | Activity (TK-10): 106.54% | Activity (SN12C): 100.48% | Activity (RXF 393): 110.09% | Activity (ACHN): 111.9% | Activity (786-0): 102.26% | Activity (NCI/ADR-RES): 102.76% | Activity (OVCAR-8): 111.5% | Activity (OVCAR-5): 119.06% | Activity (OVCAR-4): 111.66% | Activity (OVCAR-3): 125.59% | Activity (IGROV-1): 110.15% | Activity (UACC-62): 110.11% | Activity (UACC-257): 133.36% | Activity (SK-MEL-5): 103.25% | Activity (SK-MEL-28): 97.75% | Activity (SK-MEL-2): 119.93% | Activity (MDA-MB-435): 95.92% | Activity (M14): 106.48% | Activity (Malme-3M): 115.66% | Activity (LOX IMVI): 96.76% | Activity (SNB-75): 87.76% | Activity (U-251): 97.19% | Activity (SF-539): 107.96% | Activity (SNB-19): 101.36% | Activity (SF-295): 93.37% | Activity (SF-268): 115.79% | Activity (SW-620): 103.43% | Activity (KM12): 108.52% | Activity (HT-29): 95.51% | Activity (HCT-15): 106.48% | Activity (HCT-116): 94.2% | Activity (HCC 2998): 98.62% | Activity (COLO 205): 102.69% | Activity (NCI-H522): 90.02% | Activity (NCI-H460): 108.46% | Activity (NCI-H322M): 97.25% | Activity (NCI-H23): 99.17% | Activity (NCI-H226): 106.03% | Activity (HOP-92): 93.88% | Activity (HOP-62): 111.05% | Activity [3]: 100.31% | Activity (A549): 106.99% | Activity (SR): 105.62% | Activity (RPMI-8226): 106.31% | Activity (MOLT-4): 96.58% | Activity (K562): 104.58% | Activity (HL-60(TB)): 100.43% | Activity (CCRF-CEM): 98.38% | IC50 (PC-3 [4]): > 30 µM
